Measured values reported in ChEMBL document CHEMBL4825678, “Oshimalides A and B, Sesterterpenes of the Manoalide Class from a Luffariella sp. Deep-Sea Marine Sponge: Application of Asymmetric Dihydroxylation in Structure Elucidation” (2021).
Values after ≈ are worked out from the molar mass of the structure shown.

Test system: Staphylococcus aureus
Test: Antimicrobial activity against staphylococcus aureus 209P JC-1 incubated for 20 hrs by agar dilution method
Type: functional

## CC1=CC(=O)C[C@@H](C)[C@@]1(C)CC/C(C)=C/CCC1=CC[C@H](C2=CC(=O)OC2)OC1
  MIC: 51 µg/mL (≈ 128 µM)
